Test results from patent publication US20190307740A1, “COMPOSITIONS AND METHODS FOR TREATMENT RELATED TO FALL AND FALL FREQUENCY IN NEURODEGENERATIVE DISEASES” (Neurocea, LLC, priority 2016, published 2019).
Where “and” joins values, the source holds several entries; their conditions need not be identical. Equal entries are not always repeated.

Experiments:
[1] = tested on: subjects with idiopathic PD with LIDs
Procedure: (§1) At the time the study was performed (2009), there was no FDA accepted instrument for measuring treatment efficacy for LIDs. Therefore, several secondary objectives were utilized to assess efficacy including the Unified Dyskinesia Rating Scale (UDysRS).

[2] = tested on: subjects with idiopathic PD with LIDs; remark: listed apart in the source
Excerpt: (§2) This post hoc analysis was inclusive of patients having baseline scores of […] for each of UPDRS Part II Question 13, Part II Question 14, and Part III Item 30.
(§3) The original UPDRS scale was used. […] In the UPDRS Part II, Question 13 is on Falling unrelated to Freezing. […] In Part II, Question 14 is on Freezing when Walking. This is a 5-point item and has two variables freezing and falls. […] Questions 13 and 14 were compared separately (Table 11).
(§4) For falls (UPDRS Part II, Question 13), a 5-point scale was used: 0: No falls to 4: falls more than once per day. For FOG and falls related to FOG (Question 14), a 5-point scale was used: 0: No FOG to 3 or 4: frequent falls from FOG. […] Analysis utilized Fisher's exact 2-tailed test. Improvement or worsening over baseline was calculated from the last treatment visit (Table 11).
(§5) This post hoc analysis was inclusive of patients having screening and/or baseline scores of greater than 0 for each of UPDRS Part II Question 13, Part II Question 14, and Part III Item 30.
Question 13—Falling Unrelated to Freezing • 0=None; • 1=Rare falling; • 2=Occasionally falls, less than once per day; • 3=Falls an average of once daily; • 4=Falls more than once daily.
(§6) For the purposes of this alternative post hoc analysis, only patients having a screening or baseline score of 2 or more, i.e., occasional freezing when walking or occasional falls, less than once per day, were considered to have experienced episodes of freezing and/or falling. Additionally, scores of patients with a screening or baseline score of 1 were set to 0, i.e., no freezing when walking or no falls. All patients were included in the analysis regardless of their status during the study, with the last observation carried forward.

[3] = tested on: subjects with idiopathic PD with LIDs; remark: listed apart in the source
Excerpt: as §2, §3, §5

[4] = tested on: subjects with idiopathic PD with LIDs; remark: listed apart in the source
Excerpt: as §2, §3, §4
Question 14—Freezing of Walking • 0=None; • 1=Rare freezing when walking, may have start hesitation; • 2=Occasional freezing when walking; • 3=Frequent freezing, occasionally falls from freezing; • 4=Frequent falls from freezing.
as §6

[5] = tested on: subjects with idiopathic PD with LIDs; remark: listed apart in the source
Excerpt: as §3
(§7) The efficacy variables for LIDs were the mean change from baseline to week 10 in the UDysRS total score; UDysRS sub-scores (Table 12). An analysis of covariance (ANCOVA) combined features of regression and analysis of variance (ANOVA). In addition to the descriptive summary of each variable from baseline to endpoint, Least Square (LS) means standard errors and 95% Confidence intervals (CI) of each group, and the difference of LS means between the 2 treatment groups and its 95% CI are presented. A similar analysis was applied to comparisons between UPDRS Part II, UPDRS Part III.

[6] = tested on: subjects with idiopathic PD with LIDs; remark: listed apart in the source
Procedure: as §1
Efficacy was measured with the Unified Dyskinesia Rating Scale (UDysRS), a semi-quantitative assessment, FDA-validated instrument to assess […] dyskinesia in PD. […] Dosing was begun at 1 mg every 6 hours to a final dose of 24 mg per day. Patients who tolerated a total daily dose of at least 16 mg per day continued in the study.
LIDs were assessed by the UDysRS, the main measure of LIDs (Table 12). […] The study was conducted in accordance with the Declaration of Helsinki and Good Clinical Practice Guidelines. All sites received approval from an institutional review board and written informed consent was obtained from each patient prior to participation.
as §7

[7] = oral capsules
[8] = baseline to week 10, of 30 patients
[9] = baseline to week 10, of 30 patients, negative = improvement
[10] = of 30 patients, p=0.004 vs placebo

CN1CCCC1c1cccnc1.O=C(O)C(O)C(O)C(=O)O (stereo not drawn) [NP002, Nicotine Bitartrate]
PGI-C responders (score of 1, 2, or 3) ([1]; Visit 4 (Week 10), p=0.0048 vs placebo): 21 (77.8%) | LF-ADL responders (>25% reduction from baseline), vs placebo ([1]; Visit 4 (Week 10), p=0.0453): statistically significant difference between treatment groups | patient- and physician-rated assessments of efficacy vs placebo ([1]; in vivo): superior to placebo on ALL patient- and physician-rated assessments of efficacy | falling vs placebo at week 10 ([2]; Question 13 score of 2 or greater at screening or baseline, Wilcoxon-Mann-Whitney p=0.3250): directional signal towards reduced falling | patients with either a reduction or absence of falls ([2]; active phase of the study): ~87% | Falls (Question 13): patients with No Change [2, 8]: 15 | Falls (Question 13): patients with change +1 [2, 8]: 1 | Falls (Question 13): patients with change +2 [2, 8]: 0 | Falls (Question 13): patients with change +3 [2, 8]: 0 | Falls (Question 13): patients with change −1 [2, 8]: 7 | Falls (Question 13): patients with change −2 [2, 8]: 5 | Falls (Question 13): patients with change −3 [2, 9]: 2 | patients with no falls during the study ([2]; number of 30 patients): 12 | patients with a reduction in falls [2, 10]: 47% | improvement in falling vs placebo at week 10 ([2]; score >0 at screening/baseline, Fisher's exact test p=0.057): statistically significant improvement in falling | patients who reported fewer falls (UPDRS Part II, Question 13) ([2]; screening and/or baseline score >0, follow-up to visit 3 or 4): 14 of 15 | Pull Test (Item 30): patients with No Change [3, 8]: 19 | Pull Test (Item 30): patients with change +1 [3, 8]: 1 | Pull Test (Item 30): patients with change +2 [3, 8]: 0 | Pull Test (Item 30): patients with change +3 [3, 8]: 0 | Pull Test (Item 30): patients with change −1 [3, 8]: 5 | Pull Test (Item 30): patients with change −2 [3, 8]: 5 | Pull Test (Item 30): patients with change −3 [3, 9]: 0 | patients with improvement in postural stability (pull test) ([3]; patients with screening and/or baseline score >0, p=0.054 vs placebo): 9 of 24 | improvement in freezing vs placebo at week 10 ([4]; Question 14 score of 2 or greater at screening or baseline, Cochran-Mantel-Haenszel p=0.0476): statistically significant improvement in freezing | patients with either a reduction or absence of FOG ([4]; active phase of the study): ~73% | FOG (Question 14): patients with No Change [4, 8]: 17 | FOG (Question 14): patients with change +1 [4, 8]: 1 | FOG (Question 14): patients with change +2 [4, 8]: 0 | FOG (Question 14): patients with change +3 [4, 8]: 0 | FOG (Question 14): patients with change −1 [4, 8]: 10 | FOG (Question 14): patients with change −2 [4, 8]: 2 | FOG (Question 14): patients with change −3 [4, 9]: 0 | patients with no FOG during the study ([4]; number of 30 patients): 10 | patients with a reduction in FOG [4, 10]: 40% | Difference in LS Means, UPDRS Part III ([5]; NP002 versus placebo, p 0.337): −18.3 ± 1.8 | Difference in LS Means, UPDRS Part II ([5]; NP002 versus placebo, p 0.631): 10.1 ± 0.96 | UPDRS II Change ([5]; baseline to 10 weeks): 2.8 ± 5.2 | UPDRS III Change ([5]; baseline to 10 weeks): 2.0 ± 7.5 | UPDRS II at Baseline ([5]; before treatment, n=35): 13.1 ± 6.0 | UPDRS III at Baseline ([5]; before treatment, n=35): 20.0 ± 8.8 | UPDRS II at 10 Weeks ([5]; n=30): 10.1 ± 5.3 | UPDRS III at 10 Weeks ([5]; n=30): 17.3 ± 10.6 | UPDRS Part II and Part III after treatment vs placebo ([5]; p>0.34): no significant differences | UDysRS Evaluation of Dyskinesias on Ambulation, Difference LS Means ([6]; NP002 vs placebo, p 0.011): −3.7 +/− 1.9 | UDysRS Evaluation of Dyskinesias on 7 Body Parts, Difference LS Means ([6]; NP002 vs placebo, p 0.062): −2.8 +/− 2.6 | Total Score UDysRS, Difference LS Means ([6]; NP002 vs placebo, p 0.092): −6.7 +/− 4.1 | UDysRS Evaluation of Dyskinesias on Dressing, Difference LS Means ([6]; NP002 vs placebo, p 0.139): −2.1 +/− 1.4 | UDysRS Evaluation of Dyskinesias on Drinking, Difference LS Means ([6]; NP002 vs placebo, p 0.171): −2.4 +/− 1.7 | UDysRS Evaluation of Dyskinesias on Communication, Difference LS Means ([6]; NP002 vs placebo, p 0.189): −1.9 +/− 1.4 | UDysRS total score (primary outcome of dyskinesia) vs placebo ([6]; Week 10): statistical trend towards improvement | reduction (improvement) in UDysRS ambulation subtest ([6]; baseline to week 10, p=0.011 vs placebo): 46% and 46.3% | reduction in LIDs on the Total UDysRS ([6]; baseline to week 10, p=0.09 vs placebo): 29% | Total Score UDysRS, Baseline ([6]; before treatment, n=35): 51.7 +/− 16.9 | UDysRS Evaluation of Dyskinesias on 7 Body Parts, Baseline ([6]; before treatment, n=35): 13.5 +/− 5.4 | UDysRS Evaluation of Dyskinesias on Ambulation, Baseline ([6]; before treatment, n=35): 9.5 +/− 6.0 | UDysRS Evaluation of Dyskinesias on Communication, Baseline ([6]; before treatment, n=35): 10.5 +/− 4.8 | UDysRS Evaluation of Dyskinesias on Dressing, Baseline ([6]; before treatment, n=35): 11.3 +/− 6.2 | UDysRS Evaluation of Dyskinesias on Drinking, Baseline ([6]; before treatment, n=35): 9.1 +/− 5.6 | physician reported outcomes per UDysRS Part III vs placebo ([6]; dyskinesia impact on ambulation, p=0.011): significant improvement | Total Score UDysRS, Week 10 ([6]; n=27): 36.4 +/− 16.1 | UDysRS Evaluation of Dyskinesias on Ambulation, Week 10 ([6]; n=27): 5.1 +/− 5.3 | UDysRS Evaluation of Dyskinesias on Communication, Week 10 ([6]; n=27): 7.0 +/− 5.0 | UDysRS Evaluation of Dyskinesias on Dressing, Week 10 ([6]; n=27): 6.9 +/−5.5 | UDysRS Evaluation of Dyskinesias on Drinking, Week 10 ([6]; n=27): 5.3 +/− 5.0 | time until plasma concentration of nicotine returns close to baseline [7]: approximately 6 hours
